Counter-ions that a name gives are not always drawn.
How the values were obtained:
c-Met enzyme = c-Met enzyme (Homo sapiens (Human), UniProt P08581); assay: c-Met enzyme activity inhibition (Promega c-Met Kinase Enzyme System, ADP-Glo); type: biochemical; settings: 10 μM ATP, 60 min, 30° C.
Protocol: To detect the inhibitory effect of the compounds on c-Met enzyme activity.
The c-Met Kinase Enzyme System was purchased from Promega. Envision multi-label analyzer (PerkinElmer).
The kinase buffer in the kit was used to dilute the enzyme, substrate, ATP and inhibitor.
The compound to be tested was diluted 5-fold to the eighth concentration with a discharge gun, i.e., from 50 μM to […], with a final DMSO concentration of 5%, and double duplicate wells experiment was set. 1 μL of each concentration gradient of the inhibitor, 2 μL of c-Met enzyme (4 ng), 2 μL of a mixture of the substrate and ATP (10 μM ATP, 0.2 μg/μL poly E4Y1) were added to the microplate, and the final concentration gradient of the compound of 10 μM was diluted to 0.13 nM. The reaction system was placed at 30° C. and the reaction was carried out for 60 minutes. When the reaction was completed, 5 μL of ADP-Glo reagent was added to each well and the reaction was carried out at 30° C. for another 40 minutes, when the reaction was completed, 10 μL of kinase detection reagent was added to each well, then the reaction was carried out at 30° C. for still another 30 minutes, chemiluminescence was read by the PerkinElmer Envision multi-label analyzer with an integration time of 0.5 seconds.
Using the equation (Sample-Min)/(Max-Min)*100% to convert the original data to the inhibition rate, the IC50 value can be obtained by curve fitting with four parameters (obtained by log(inhibitor) vs. response in GraphPad Prism—Variable slope mode).

EBC-1 cells = assay: EBC-1 cell proliferation experiment (CellTiter-Glo); type: cell-based, human; settings: 3 days
Protocol: MEM medium, fetal bovine serum, penicillin/streptomycin antibiotics were purchased from Wisent. EBC-1 cell line was purchased from Nanjing COBIO Bioscience Co., LTD. Envision multi-label analyzer (PerkinElmer).
EBC-1 cells were seeded in a white 96-well plate, […] cell suspension per well, which contained 3000 EBC-1 cells. The cell plate was placed in a carbon dioxide incubator for overnight culture.
The compound to be tested was diluted 5-fold to the eighth concentration with a discharge gun, i.e., from 2 mM to […], and double duplicate wells experiment was set. 78 μL of the medium was added to the middle plate, then 2 μL per well of gradient diluted compound was transferred to the corresponding position on the middle plate, then mixed well and 20 μL per well was transferred to the cell plate. The cell plate was cultured in a carbon dioxide incubator for 3 days. Another cell plate was prepared and the signal values were read on the day of dosing as […] to be used in the data analysis. 25 μL of Promega CellTiter-Glo was added to each well of this cell plate, and incubated at room temperature for 10 minutes to stabilize the luminescence signal. Readings were taken using a PerkinElmer Envision multi-label analyzer.
25 μL of Promega CellTiter-Glo reagent was added to each well of this cell plate, and incubated at room temperature for 10 minutes to stabilize the luminescence signal. Readings were taken using a PerkinElmer Envision multi-label analyzer.
Using the equation (Sample-Min)/(Max-Min)*100% to convert the original data to the inhibition rate, the IC50 value can be obtained by curve fitting with four parameters (obtained by “log(inhibitor) vs. response in GraphPad Prism—Variable slope mode).

[1] = tested on: human lung cancer EBC-1 xenograft tumor; assay: In vivo drug efficacy, human lung cancer EBC-1 xenograft tumor in nude mice; design: species or system BALB/c nude mice; settings: for Tumor volume: n = 6
Protocol: BALB/c nude mice, female, 6-8 weeks old, weighing about 18-20 grams, animals were raised in SPF-class animal rooms in IVC (independent air supply system, constant temperature and humidity) cages (3 per cage). All cages, bedding and water were disinfected before use. All animals had free access to standard certified commercial laboratory diets. A total of 36 mice purchased from Shanghai Lingchang Biotechnology Co., Ltd. were used for research. Each animal was inoculated with 0.1 mL (5×10^6 cells) of EBC-1 cells on the right back, when the average tumor volume reached 243 mm^3, the animals were randomly grouped and the administration was started. The test compound was orally administered daily, the dose of hydrochloride of compound 24 was 10 mg/kg, the two doses of hydrochloride of compound 25 were 10 mg/kg and 20 mg/kg, respectively, and the dose of hydrochloride of compound 29 was 10 mg/kg. The tumor diameter was measured with vernier calipers twice a week. The calculation formula of tumor volume was: V=0.5a×b^2, a and b represented the long diameter and short diameter of the tumor, respectively. The anti-tumor efficacy of the compound was evaluated by TGI (%) or the relative tumor proliferation rate T/C (%). Relative tumor proliferation rate T/C (%)=TRTV/CRTV×100% (TRTV: average RTV in the treatment group; CRTV: average RTV in the negative control group). The relative tumor volume (RTV) was calculated according to the results of tumor measurement, the calculation formula was RTV=Vt/V0, wherein V0 was the tumor volume measured at the time of the grouping administration (i.e. D0), Vt was the tumor volume at a certain measurement, and TRTV and CRTV were taken on the same day. TGI (%) reflected the tumor growth inhibition rate. TGI (%)=[(1−(average tumor volume of a certain treatment group after administration-average tumor volume of the treatment group at the beginning of administration))/(average tumor volume of the solvent control group after the administration-average tumor volume of the solvent control group at the beginning of the administration)]×100%. Statistical analysis was performed based on RTV data at the end of the experiment, and SPSS software was used for analysis.

c-Met enzyme, sequence (P08581 956-1390): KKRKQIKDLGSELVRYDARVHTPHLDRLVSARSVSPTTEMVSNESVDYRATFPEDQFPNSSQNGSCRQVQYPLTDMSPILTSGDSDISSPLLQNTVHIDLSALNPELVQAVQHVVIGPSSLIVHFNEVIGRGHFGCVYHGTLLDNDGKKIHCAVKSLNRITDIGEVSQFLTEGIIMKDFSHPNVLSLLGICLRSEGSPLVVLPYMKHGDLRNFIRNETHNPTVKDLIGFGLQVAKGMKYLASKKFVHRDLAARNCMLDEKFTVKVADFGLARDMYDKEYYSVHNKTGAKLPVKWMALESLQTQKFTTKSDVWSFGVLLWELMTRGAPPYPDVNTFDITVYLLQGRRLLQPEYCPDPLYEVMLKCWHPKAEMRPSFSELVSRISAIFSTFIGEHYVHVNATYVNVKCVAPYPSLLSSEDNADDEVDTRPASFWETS

IC50 (c-Met enzyme) [nM] | SMILES | IC50 (EBC-1 cells; Homo sapiens, EBC-1, 72 h) [nM] | other results
5.06 | CCN1CCC(COc2cnc(-c3cccc(Cn4c5c(ccc4=O)-c4cc(C#N)ccc4C5=O)c3)nc2)CC1 [Hydrochloride of compound 12] | 6.66 | 
3.26 | CN1CCC(COc2cnc(-c3cccc(Cn4c(=O)ccn5c6cc(C#N)ccc6nc45)c3)nc2)CC1 [Hydrochloride of compound 11] | 6.99 | 
42 | CCN1CCC(COc2cnc(-c3cccc(Cn4c(=O)c(F)cn5c6cc(C#N)ccc6nc45)c3)nc2)CC1 [Hydrochloride of compound 13] | 133 | 
16 | CN1CCC(COc2cnc(-c3cccc(Cn4c5c(ccc4=O)-c4cc(F)ccc4C5=O)c3)nc2)CC1 [Formate of compound 3] | 32.8 | 
10 | CN1CCC(COc2cnc(-c3cccc(Cn4c5c(ccc4=O)-c4cc(C#N)ccc4C5=O)c3)nc2)CC1 [Formate of compound 2] | 5.79 | 
 | CC(C)N1CCC(COc2cnc(-c3cccc(Cn4c(=O)ccn5c6cc(C#N)cnc6nc45)c3)nc2)CC1 [Hydrochloride of compound 33] | 899 | 
2.03 | CCN1CCC(COc2cnc(-c3cccc(Cn4c(=O)ccn5c6cc(C#N)ccc6nc45)c3)nc2)CC1 [Hydrochloride of compound 24] | 4.26 | Tumor volume ([1]; 10 mg/kg oral daily (stopped after 15 days), day 18, mean ± standard error): 123 ± 31 mm^3; Tumor volume ([1]; 10 mg/kg oral daily (stopped after 15 days), day 21, mean ± standard error): 164 ± 45 mm^3; Tumor volume ([1]; 10 mg/kg oral daily (stopped after 15 days), day 25, mean ± standard error): 257 ± 72 mm^3; Tumor volume ([1]; 10 mg/kg oral daily (stopped after 15 days), day 25, mean ± standard error, listed as hydrochloride of compound 24): 257 mm^3; Tumor volume ([1]; 10 mg/kg oral daily (stopped after 15 days), day 27, mean ± standard error): 366 ± 92 mm^3; TGI (tumor growth inhibition rate) ([1]; 10 mg/kg oral daily, 25th day): 99.3%; TRTV/CRTV (relative tumor proliferation rate T/C) ([1]; 10 mg/kg oral daily, 25th day): 13.7%; Tumor volume ([1]; 10 mg/kg oral daily, day 0, mean ± standard error): 244 ± 23 mm^3; Tumor volume ([1]; 10 mg/kg oral daily, day 4, mean ± standard error): 270 ± 22 mm^3; Tumor volume ([1]; 10 mg/kg oral daily, day 7, mean ± standard error): 224 ± 16 mm^3; Tumor volume ([1]; 10 mg/kg oral daily, day 11, mean ± standard error): 142 ± 24 mm^3; Tumor volume ([1]; 10 mg/kg oral daily, day 14, mean ± standard error): 120 ± 25 mm^3
 | N#Cc1ccc2nc3n(Cc4cccc(-c5ncc(OCC6CCN(C7CCC7)CC6)cn5)c4)c(=O)ccn3c2c1 [Hydrochloride of compound 44] |  | IC50 (EBC-1 cells): 6.83 nM
131 | CN1CCC(COc2cnc(-c3cccc(Cn4c5c(ccc4=O)-c4cc(C#N)ccc4OC5)c3)nc2)CC1 [Formate of compound 5] | 585 | 
3.12 | N#Cc1ccc2nc3n(Cc4cccc(-c5ncc(OCC6CCN(C7COC7)CC6)cn5)c4)c(=O)ccn3c2c1 [Hydrochloride of compound 26] | 16.2 | 
58 | CN1CC2(CC(Oc3cnc(-c4cccc(Cn5c(=O)ccn6c7cc(C#N)ccc7nc56)c4)nc3)C2)C1 [Hydrochloride of compound 28] | 66 | 
6.46 | CN1CCC(COc2cnc(-c3cccc(Cn4c(=O)ccc5c4nc4ccc(C#N)cn45)c3)nc2)CC1 [Hydrochloride of compound 23] | 16.8 | 
24.9 | CN1CCC(COc2cnc(-c3cccc(Cn4c(=O)ccc5c6cc(C#N)ccc6sc54)c3)nc2)CC1 [Hydrochloride of compound 6] | 62.8 | 
 | CN1CCC(COc2cnc(-c3cccc(Cn4c(=O)ccn5c6cc(C#N)cnc6nc45)c3)nc2)CC1 [Hydrochloride of compound 32] | 816 | 
21.5 | CN1CCC(COc2cnc(-c3cccc(Cn4c(=O)c(F)cc5c6cc(C#N)ccc6sc54)c3)nc2)CC1 [Hydrochloride of compound 8] | 36 | 
15.7 | CN1CCC(COc2cnc(-c3cccc(Cn4c(=O)ccn5c6cc(C#N)ccc6cc45)c3)nc2)CC1 [Hydrochloride of compound 10] | 31.6 | 
15.2 | CS(=O)(=O)CCN1CCC(COc2cnc(-c3cccc(Cn4c(=O)ccn5c6cc(C#N)ccc6nc45)c3)nc2)CC1 [Hydrochloride of compound 42] |  | 
167 | CN1CCC(COc2cnc(-c3cccc(Cn4c5c(ccc4=O)-c4cc(F)ccc4C5(F)F)c3)nc2)CC1 [Formate of compound 4] |  | 
 | CN(C)CCN1CCC(COc2cnc(-c3cccc(Cn4c(=O)ccn5c6cc(C#N)ccc6nc45)c3)nc2)CC1 [Compound 31] | 493 | 
 | CC(C)N1CC(COc2cnc(-c3cccc(Cn4c(=O)ccn5c6cc(C#N)ccc6nc45)c3)nc2)C1 [Hydrochloride of compound 46] | 12.2 | 
21.8 | CN1CCC(COc2cnc(-c3cccc(Cn4c(=O)ccn5c6ccc(C#N)cc6nc45)c3)nc2)CC1 [Hydrochloride of compound 9] | 31.8 | 
11.6 | COCCN1CCC(COc2cnc(-c3cccc(Cn4c(=O)ccn5c6cc(C#N)ccc6nc45)c3)nc2)CC1 [Hydrochloride of compound 35] | 5.8 | 
 | CCCN1CCC(COc2cnc(-c3cccc(Cn4c(=O)ccn5c6cc(C#N)ccc6nc45)c3)nc2)CC1 [Hydrochloride of compound 43] | 7.32 | 
 | N#Cc1ccc2nc3n(Cc4cccc(-c5ncc(OCC6CCN(C7CCC7)CC6)cn5)c4)c(=O)ccn3c2c1 [Hydrochloride of compound 45] |  | IC50 (EBC-1 cells): 19.3 nM
13.4 | CC(C)N1CCC(COc2cnc(-c3cccc(Cn4c5c(ccc4=O)-c4cc(C#N)ccc4C5=O)c3)nc2)CC1 [Hydrochloride of compound 19] | 14.1 | 
45 | CN1CCC(COc2cnc(-c3cccc(Cn4c5c(cc(F)c4=O)-c4cc(C#N)ccc4C5(F)F)c3)nc2)CC1 [Hydrochloride of compound 16] | 135 | 
17.7 | CN1CCC(COc2cnc(-c3cccc(Cn4c(=O)ccc5c4nn4ccc(C#N)cc54)c3)nc2)CC1 [Hydrochloride of compound 27] | 38 | 
42 | CN1CCC(COc2cnc(-c3cccc(Cn4c5c(ccc4=O)-c4cc(C#N)ccc4C5(F)F)c3)nc2)CC1 [Formate of compound 1] | 133 | 

SMILES | IC50 (c-Met enzyme) [nM] | IC50 (EBC-1 cells; Homo sapiens, EBC-1, 72 h) [nM] | other results
CN1CCN(C(=O)Oc2cnc(-c3cccc(Cn4c5c(ccc4=O)-c4cc(C#N)ccc4C5=O)c3)nc2)CC1 [Hydrochloride of compound 20] | 26 |  | 
